Experimental data published in PubChem BioAssay (NCI).
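Protocol summary: plate cells (96-well), add compound at 5 concentrations, incubate 48 h, interpolate endpoints linearly. GI50 marks 50% less growth. Definition used: TGI = concentration required for complete inhibition of growth.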

Columns and labels:
Test in all cases: NCI anticancer screen, dose series, 48 h
SF-295 CNS = system: SF-295 CNS
HCT-116 colon = system: HCT-116 colon
OVCAR-4 ovarian = system: OVCAR-4 ovarian
UACC-257 melanoma = system: UACC-257 melanoma
A549 NSCLC = system: A549 NSCLC
MDA-MB-435 = system: MDA-MB-435
MDA-MB-231 breast = system: MDA-MB-231 breast
EKVX NSCLC = system: EKVX NSCLC
SK-MEL-5 melanoma = system: SK-MEL-5 melanoma
NCI-H460 lung = system: NCI-H460 lung
OVCAR-3 ovarian = system: OVCAR-3 ovarian
UO-31 renal = system: UO-31 renal
HL-60(TB) leukemia = system: HL-60(TB) leukemia
HCC-2998 colon = system: HCC-2998 colon
NCI-H23 lung = system: NCI-H23 lung
MOLT-4 leukemia = system: MOLT-4 leukemia
NCI-H226 lung = system: NCI-H226 lung
MALME-3M melanoma = system: MALME-3M melanoma
HS 578T breast = system: HS 578T breast
SK-MEL-28 melanoma = system: SK-MEL-28 melanoma
K-562 leukemia = system: K-562 leukemia
NCI/ADR-RES ovarian = system: NCI/ADR-RES ovarian
CAKI-1 renal = system: CAKI-1 renal
MCF7 breast = system: MCF7 breast
RPMI-8226 leukemia = system: RPMI-8226 leukemia
A498 renal = system: A498 renal
M14 melanoma = system: M14 melanoma
SNB-19 CNS = system: SNB-19 CNS
HCT-15 colon = system: HCT-15 colon
KM12 colon = system: KM12 colon
PC-3 prostate = system: PC-3 prostate
HOP-62 NSCLC = system: HOP-62 NSCLC
IGROV1 ovarian = system: IGROV1 ovarian
U251 CNS = system: U251 CNS
UACC-62 melanoma = system: UACC-62 melanoma
SR leukemia = system: SR leukemia
786-0 renal = system: 786-0 renal
SF-539 CNS = system: SF-539 CNS
ACHN renal = system: ACHN renal
LOX IMVI melanoma = system: LOX IMVI melanoma
HOP-92 NSCLC = system: HOP-92 NSCLC
COLO 205 colon = system: COLO 205 colon
OVCAR-8 ovarian = system: OVCAR-8 ovarian
DU-145 prostate = system: DU-145 prostate
OVCAR-5 ovarian = system: OVCAR-5 ovarian
RXF 393 renal = system: RXF 393 renal
SF-268 CNS = system: SF-268 CNS
SW-620 colon = system: SW-620 colon
T-47D breast = system: T-47D breast
CCRF-CEM leukemia = system: CCRF-CEM leukemia
SK-OV-3 ovarian = system: SK-OV-3 ovarian
SNB-75 CNS = system: SNB-75 CNS

**Q.** What does the source list for Nc1nc(N)c(N=Nc2ccccc2)c(-c2ccccc2)n1?
**A.** GI50 (SF-295 CNS): 3.18 µM; TGI (SF-295 CNS): 18.6 µM; GI50 (HCT-116 colon): 5.12 µM; TGI (HCT-116 colon): 18.3 µM; GI50 (OVCAR-4 ovarian): 4.03 µM; TGI (OVCAR-4 ovarian): 20.7 µM; GI50 (UACC-257 melanoma): 13.7 µM; TGI (UACC-257 melanoma): 35.9 µM; GI50 (A549 NSCLC): 6.85 µM; TGI (A549 NSCLC): 22.8 µM; GI50 (MDA-MB-435): 11.5 µM; TGI (MDA-MB-435): 29.5 µM; GI50 (MDA-MB-231 breast): 5.84 µM; TGI (MDA-MB-231 breast): 30.5 µM; GI50 (EKVX NSCLC): 3.75 µM; TGI (EKVX NSCLC): 30.8 µM; GI50 (SK-MEL-5 melanoma): 3.74 µM; TGI (SK-MEL-5 melanoma): 20.3 µM; GI50 (NCI-H460 lung): 4.16 µM; TGI (NCI-H460 lung): 17.8 µM; GI50 (OVCAR-3 ovarian): 10.4 µM; TGI (OVCAR-3 ovarian): 23 µM; GI50 (UO-31 renal): 2.54 µM; TGI (UO-31 renal): 24.7 µM; GI50 (HL-60(TB) leukemia): 11.1 µM; TGI (HL-60(TB) leukemia): > 100 µM; GI50 (HCC-2998 colon): 14.3 µM; TGI (HCC-2998 colon): > 100 µM; GI50 (NCI-H23 lung): 10.4 µM; TGI (NCI-H23 lung): 31.4 µM; GI50 (MOLT-4 leukemia): 3.68 µM; TGI (MOLT-4 leukemia): 68.7 µM; GI50 (NCI-H226 lung): 4.19 µM; TGI (NCI-H226 lung): 19.4 µM; GI50 (MALME-3M melanoma): 4.33 µM; TGI (MALME-3M melanoma): 24.9 µM; GI50 (HS 578T breast): 1.66 µM; TGI (HS 578T breast): 6.88 µM; GI50 (SK-MEL-28 melanoma): 11.3 µM; TGI (SK-MEL-28 melanoma): 28.2 µM; GI50 (K-562 leukemia): 10.3 µM; TGI (K-562 leukemia): > 100 µM; GI50 (NCI/ADR-RES ovarian): 9.53 µM; TGI (NCI/ADR-RES ovarian): 53.1 µM; GI50 (CAKI-1 renal): 3.57 µM; TGI (CAKI-1 renal): 23.5 µM; GI50 (MCF7 breast): 0.362 µM; TGI (MCF7 breast): 18.1 µM; GI50 (RPMI-8226 leukemia): 7.98 µM; TGI (RPMI-8226 leukemia): 46 µM; GI50 (A498 renal): 2.07 µM; TGI (A498 renal): 11.4 µM; GI50 (M14 melanoma): 12 µM; TGI (M14 melanoma): 34.6 µM; GI50 (SNB-19 CNS): 12.5 µM; TGI (SNB-19 CNS): 43.3 µM; GI50 (HCT-15 colon): 5.95 µM; TGI (HCT-15 colon): 39.9 µM; GI50 (KM12 colon): 2.89 µM; TGI (KM12 colon): 14.5 µM; GI50 (PC-3 prostate): 3.02 µM; TGI (PC-3 prostate): 20.8 µM; GI50 (HOP-62 NSCLC): 4.25 µM; TGI (HOP-62 NSCLC): 19.2 µM; GI50 (IGROV1 ovarian): 2.01 µM; TGI (IGROV1 ovarian): 22.2 µM; GI50 (U251 CNS): 8.27 µM; TGI (U251 CNS): 26.8 µM; GI50 (UACC-62 melanoma): 4.33 µM; TGI (UACC-62 melanoma): 20.1 µM; GI50 (SR leukemia): 4.54 µM; TGI (SR leukemia): 73.3 µM; GI50 (786-0 renal): 5.98 µM; TGI (786-0 renal): 19.4 µM; GI50 (SF-539 CNS): 6.39 µM; TGI (SF-539 CNS): 21.1 µM; GI50 (ACHN renal): 4.49 µM; TGI (ACHN renal): 19 µM; GI50 (LOX IMVI melanoma): 11 µM; TGI (LOX IMVI melanoma): 23.5 µM; GI50 (HOP-92 NSCLC): 1.45 µM; TGI (HOP-92 NSCLC): 9.95 µM; GI50 (COLO 205 colon): 9.29 µM; TGI (COLO 205 colon): 25.8 µM; GI50 (OVCAR-8 ovarian): 11.1 µM; TGI (OVCAR-8 ovarian): 37.4 µM; GI50 (DU-145 prostate): 9.9 µM; TGI (DU-145 prostate): 34.1 µM; GI50 (OVCAR-5 ovarian): 6.47 µM; TGI (OVCAR-5 ovarian): 23.8 µM; GI50 (RXF 393 renal): 3.42 µM; TGI (RXF 393 renal): 15.4 µM; GI50 (SF-268 CNS): 5.86 µM; TGI (SF-268 CNS): 66.8 µM; GI50 (SW-620 colon): 12.8 µM; TGI (SW-620 colon): 27.2 µM; GI50 (T-47D breast): 0.487 µM; TGI (T-47D breast): 6.91 µM; GI50 (CCRF-CEM leukemia): 8.14 µM; TGI (CCRF-CEM leukemia): > 100 µM; GI50 (SK-OV-3 ovarian): 4.4 µM; TGI (SK-OV-3 ovarian): 17.5 µM; GI50 (SNB-75 CNS): 1.41 µM; TGI (SNB-75 CNS): 7.8 µM
